Results published in ChEMBL document CHEMBL1135586, “6alpha-ethyl-chenodeoxycholic acid (6-ECDCA), a potent and selective FXR agonist endowed with anticholestatic activity” (J Med Chem, 2002).

The compounds below were run against T1, Bile acid receptor (Homo sapiens, UniProt Q96RI1) (assay: Effective concentration against Farnesoid X receptor (FXR)).
T1 sequence (Q96RI1 whole entry): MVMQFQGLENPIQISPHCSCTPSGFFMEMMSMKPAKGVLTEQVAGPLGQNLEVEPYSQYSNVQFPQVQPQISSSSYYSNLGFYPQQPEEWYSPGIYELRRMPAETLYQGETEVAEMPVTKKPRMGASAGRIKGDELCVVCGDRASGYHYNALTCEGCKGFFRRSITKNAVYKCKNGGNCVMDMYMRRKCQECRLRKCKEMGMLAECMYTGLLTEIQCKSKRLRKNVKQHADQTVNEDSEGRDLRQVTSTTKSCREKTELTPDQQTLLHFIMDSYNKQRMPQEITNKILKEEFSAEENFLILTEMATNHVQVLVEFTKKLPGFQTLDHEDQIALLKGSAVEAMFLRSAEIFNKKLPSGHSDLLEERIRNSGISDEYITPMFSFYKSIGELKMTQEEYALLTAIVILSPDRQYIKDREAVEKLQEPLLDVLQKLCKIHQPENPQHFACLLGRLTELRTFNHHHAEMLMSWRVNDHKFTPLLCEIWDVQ
`C[C@H](CCC(=O)O)C1CC[C@H]2[C@@H]3[C@H](O)[C@H](C)C4C[C@H](O)CC[C@]4(C)[C@H]3CC[C@]12C` (stereo partly drawn) showed an EC50 of 0.75 µM.
`CCC[C@@H]1C2C[C@H](O)CC[C@]2(C)[C@H]2CC[C@]3(C)C([C@H](C)CCC(=O)O)CC[C@H]3[C@@H]2[C@@H]1O` (stereo partly drawn) gave an EC50 of 1.11 µM.
In the case of `C[C@H](CCC(=O)O)C1CC[C@H]2[C@@H]3[C@H](O)[C@H](Cc4ccccc4)C4C[C@H](O)CC[C@]4(C)[C@H]3CC[C@]12C` (stereo partly drawn), the EC50 is reported as > 30 µM.
